Measurements as given in a melting point compilation (Tetko et al.; mined from patent text by program, amines drawn as free bases though some values may be those of a salt).

| Structure (SMILES) | melting point |
| --- | --- |
| CC=CC(=O)c1c(CCC)n(Cc2ccccc2Cl)c2cc(C(N)=O)ccc12 | 186 °C |
| O=C(O)CC(=O)NCc1cc(Br)cc2[nH]c(=O)c(=O)[nH]c12 | > 300 °C |
| Cn1nc(-c2cc(Oc3ccccc3)c(C#N)cc2F)c(Cl)c1C(F)(F)F | 123 °C |
| CCOCc1nc2c(N)nc3cc(OCCCCCCNC(C)=O)ccc3c2n1CC(C)(C)NC(C)=O | 190 to 192 °C |
| Clc1cc(Cl)nc(-n2cnc3ccccc32)n1 | 173 to 175 °C |
| COc1ccc2nc(Nc3cc(C)cs3)[nH]c2c1 | 143 to 146 °C |
| CNCc1cccc(NC(=O)c2c[nH]c3c2C(=O)CCC3)c1 | 130 to 132 °C |
| O=[N+]([O-])c1cc(S(=O)(=O)N2CCC(O)C2)sc1Cl (racemic) | 96 °C |
| CNS(=O)(=O)c1ccc(C=C2C(C)=C(CC(=O)OC)c3cc(OC)ccc32)cc1 | 167 to 169 °C |
| COc1cc2c(cc1OC)CC(Nc1ccc(O)cc1)CC2 (configuration not stated) | 150 to 152 °C |
| CC(O)C1CCCCCCCCCCC1 (configuration not stated) | 35 °C |
| Cc1cccc(C)c1NC(=O)CN1CCNC(C)C1c1ncnc2sccc12 (configuration not stated) | 184 to 185 °C |
| COCc1cn(Cc2ccccc2)c(=O)[nH]c1=O | 134 to 136 °C |
| O=C1CC2(CCCC2)C(O)C(=O)N1CCCCN1CCN(c2nsc3ccccc23)CC1 (configuration not stated) | 151 °C |
| CN1CCN(c2ncnc3c([N+](=O)[O-])cccc23)C1=O | 207 to 210 °C |
| COC(=O)c1cc(C)cc(CNO)c1 | 99 to 100 °C |
| CC(=O)OC1CSC(Oc2cc(-c3cncnc3)cnc2Cl)C(OC(C)=O)C1OC(C)=O (configuration not stated) | 72 to 90 °C |
| O=C1c2ccccc2C(=O)c2c(NC(=O)C3CC3)ccc(NC(=O)C3CC3)c21 | > 200 °C |
| O=C(NCCCCCC1CCSS1)c1cccnc1 (configuration not stated) | 41 to 44 °C |
| COC(=O)C(=O)c1ccc(OCCOc2cccc(F)c2)cc1 | 68 to 69 °C |
| N#Cc1n[nH]c2nc(N3CCCNCC3)ccc12 | 196 to 197 °C |
| O=C(O)c1ccccc1N1C(=O)C=CC1=O | 165 to 168 °C |
| CC(C)(C)c1cc(NC(=O)NCCCl)cc(C(C)(C)C)c1O | 169 to 171 °C |
| COCc1nc2c(NCc3c(C)cccc3C)cc(C(=O)N(C)C)cc2n1C | 156 to 157 °C |
| Cc1ccc(N(C(=O)CCl)c2c(F)cccc2Cl)cc1 | 80 to 83 °C |
| COC(=O)C(C)Oc1ccc(Oc2ncc(Cl)cc2F)cc1 (configuration not stated) | 58 to 59 °C |

| Structure (SMILES) | melting point |
| --- | --- |
| C=CCOc1nc(N(CC=C)CC=C)nc(N2CCc3ccccc3CC2)c1C#N | 126 to 130 °C |
| N#CC(N)=C(C#N)NCc1cnn(-c2c(Cl)cc(C(F)(F)F)cc2Cl)n1 | 191 to 192 °C |
| CCCCc1nn2ccccc2c1C(=O)c1ccccc1C#N | 116 °C |
| C(=Cc1ccc(-c2noc3ccccc23)cc1)c1ccc(-c2nc(-c3ccccc3)no2)cc1 | 216 to 217 °C |
| CCCc1nc2c(N)nc3ccccc3c2n1CCCON=C(C)C | 147 to 150 °C |
| Cc1cc(C)n(-c2nc(-c3ccc(Cl)cc3)c(CCCOc3ccccc3C)o2)n1 | 103 to 104 °C |
| O=C(NCC(=O)N1c2ccccc2N(Cc2ccccc2)C(=O)[C@H]2CCC[C@H]21)c1ccncc1 (relative stereo) | 196 to 199 °C |
| Cc1cc(OCCc2nc(-c3ccccc3)oc2C)cc(C)c1CN(O)C(N)=O | 170 to 171 °C |
| Cc1[nH]c(C=O)c(C)c1C(=O)NCC1CCCCN1 (configuration not stated) | 107 to 115 °C |
| FC(F)(F)c1ccnc(Oc2ccc(CCNc3ncnc4nccnc34)cc2)c1 | 147 to 149 °C |
| Nc1ncc(-c2nc(N3CCOCC3)c3sc(NS(=O)(=O)c4cccc(C=CC(=O)NO)c4)cc3n2)cn1 | > 300 °C |
| CCOc1nccc(CC(=O)O)c1NC(=O)OC(C)(C)C | 94 to 95.5 °C |
| CCOC(=O)c1sc(SC)c(C(=O)CC)c1C | 114 to 115 °C |
| Clc1ccc2c(Br)ccnc2c1 | 102 to 103 °C |
| CCC(C)(C)c1ccc(OCC(=O)Nc2ccc(Nc3cccc(O)c3)cc2)c(C(C)(C)CC)c1 | 150 to 152 °C |
| O=C(O)c1ccc(F)c(Oc2ccccc2)c1 | 226 to 227 °C |
| CCCCCc1c(C(C)C)nc(C(C)C)c(C(C)CO)c1-c1ccc(F)cc1 (configuration not stated) | 77 to 79 °C |
| O=CNc1ccc(C(=O)N(CCN2CCC(C(=O)c3ccc(F)cc3)CC2)c2cccnc2)cc1 | 147 to 148 °C |
| CC(C)(C)OC(=O)NC(CO)COc1noc2ccc(Cl)cc12 (configuration not stated) | 121 to 122 °C |
| CN(C)C1CCN(c2ccc(-c3[nH]nc4c3C(=O)c3c(NC(=O)NN5CCOCC5)cccc3-4)cc2)CC1 | 258 °C |
| CC1C(C#N)=C(N)OC2=C1C(=O)CC(c1cccc3ccccc13)C2 (configuration not stated) | 204 to 206 °C |
| CC12C=CC(=O)C=C1C(F)CC1C2=CCC2(C)C(C(=O)CCl)=CCC12 (configuration not stated) | 196 to 200 °C |
| NC(=O)c1cc(F)cc(-c2ccc(F)c3cc(Cc4cccc(C(F)(F)F)c4)sc23)c1 | 161 to 162 °C |
| Nc1cc(O)c(C(=O)O)cc1Cl | 192 °C |
| OCCC(=C(c1ccccc1)c1ccc(OCCBr)cc1)c1ccccc1 | 133 to 137 °C |
| NNC(=O)c1cn2ccccc2n1 | 195 to 198 °C |

| Structure (SMILES) | melting point |
| --- | --- |
| CSCC(=O)Nc1cccc(C(F)(F)F)c1 | 75 to 77 °C |
| OCCCCCCCCCCCC(F)(F)C(F)(F)F | 41 to 43 °C |
| Nc1cc(I)c(I)cc1N | 135 to 136 °C |
| COc1ccc(C(=O)Nc2ccc(C(=O)O)c3ccccc23)cc1OC | 256 to 259 °C |
| CC(C)(C)C(=O)SC1CCN(C(C(=O)C2CC2)c2ccccc2F)CC1 (configuration not stated) | 88 to 89 °C |
| Fc1cccc(F)c1-c1cnc(-c2ccc(Br)cc2)nn1 | 167 to 169 °C |
| CONC(=O)COc1c(-c2ccccc2)c(=O)[nH]c2cc(Cl)ccc12 | 205 to 207 °C |
| COc1ccc(CCN2CCC(C(O)(c3cccs3)c3cccs3)CC2)cc1 | 153 to 155 °C |
| C[C@H](CO)Nc1nc(SCc2cccc(F)c2F)nc2[nH]c(=O)cnc12 | 215 to 217 °C |
| COc1ccc(-c2nc(C)c(C)s2)cc1 | 166 to 170 °C |
| CC(C)(Oc1ccc(C#N)cc1Cl)c1ccccc1 | 60 to 62 °C |
| CCC(=O)Oc1cc([N+](=O)[O-])cc([N+](=O)[O-])c1OC(=O)CC | 72 to 73 °C |
| N#CCc1cccc2c(C3CCCCC3)nccc12 | 85.3 to 85.6 °C |
| OC(COc1ccc(-c2ccc(I)cc2)cc1)CN1CCCC1 (configuration not stated) | 123 to 124 °C |
| CCCN(Cc1ccccc1)c1cccc(-c2nc(NC)nc3cc(OC)c(OC)cc23)c1 | 75 to 77 °C |
| O=c1c2ccccc2nc(-c2sc(Nc3ccc(Cl)cc3)nc2-c2ccccc2)n1-c1ccccc1 | > 275 °C |
| Cc1noc(NS(=O)(=O)c2cccc(C(F)(F)F)c2)c1Br | 113 to 115 °C |
| CCOC(=O)/C=C/c1cc(OCc2cn(-c3ccc(C(F)(F)F)cn3)nc2C(C)C)nn1C | 105 to 106 °C |
| CCOC(=O)C(C)c1ccc2c(c1)sc1nc(=O)cc(-c3ccccc3)n12 (configuration not stated) | 127 to 131 °C |
| O=C1C=CC(O)(c2nc3ccccc3o2)C=C1 | 116 to 117 °C |
| COc1ccc(S(=O)(=O)Oc2ccn3nc(-c4ccccc4)c(-c4ccc(=O)n(C(C)C)n4)c3c2)cc1 | 155 to 157 °C |
| O=C(Cc1cccc(OC(F)(F)F)c1)NCc1cccc2c1C(=O)N(C1CCC(=O)NC1=O)C2=O (configuration not stated) | 178 to 180 °C |
| Nc1ccc2c(c1)Cc1c(-c3ccccc3)n[nH]c1-2 | 228 to 230 °C |
| CCN(CC)C(=O)n1cc(Br)c(S(=O)(=O)c2cc(C)ccc2C)n1 | 83 to 84 °C |
| COC(=O)c1ccc(NC(=O)c2cc(C(C)C)c(C(C)C)s2)cc1F | 146 to 147 °C |
| C(=C\c1ncc(-c2cnc(-c3ccccc3)nc2)[nH]1)/c1cccnc1 | 258 °C |

| Structure (SMILES) | melting point |
| --- | --- |
| N#CC(Cl)=C(Cl)S(=O)(=O)c1ccccc1 | 72 °C |
| CCCc1nc(C(C)(C)O)c(C(=O)OC2OC(=O)c3ccccc32)n1Cc1ccc(-c2ccccc2-c2nnn[nH]2)cc1 (configuration not stated) | 168 to 170 °C |
| COc1cc2nc(N3CCN(C)CC3)n3ncnc3c2cc1OC | 194 to 196 °C |
| Cc1ccc(S(=O)(=O)OCC2COc3ccc([N+](=O)[O-])c(CC=O)c3O2)cc1 (configuration not stated) | 116 to 120 °C |
| CC(=O)OC1CSC(OC(=N)C(Cl)(Cl)Cl)C(OC(C)=O)C1OC(C)=O (configuration not stated) | 110 °C |
| CCOC(=O)C(=O)CC(=O)/C=C/c1ccc(Cl)cc1 | 117 to 118 °C |
| CCOC(=O)C1=C(C)NC(N)=C(C(=O)OCC)C1c1ccccc1[N+](=O)[O-] (configuration not stated) | 159 °C |
| O=C(O)c1oc2ccc(Cl)cc2c1-c1ccccc1 | 247 to 248 °C |
| N#Cc1ccc2cc(CBr)ccc2c1 | 134 to 137 °C |
| Cc1nc2ccc(Cl)nn2c1C(=O)c1ccc(Cl)cc1F | 160 °C |
| COC(=O)Cc1cc2c(cc1CC(=O)NCCc1ccc(OC)c(OC)c1)OCO2 | 122 to 125 °C |
| O=C(Nc1cnccn1)Nc1cccc2c1C1C[C@@H](O)CCN1C2=O (some centres not stated) | 250 °C |
| COC(=O)CN1CC(N2C(=O)c3ccccc3C2=O)C1=O (configuration not stated) | 178 to 180 °C |
| CCOC(=O)Cn1cc(C#N)nn1 | 47 to 48 °C |
| COc1ccccc1-n1c(=O)[nH]c2c(C(N)=O)nc(-c3ccncc3)nc21 | 318 to 320 °C |
| CC(C)[C@H](NC(=O)Cc1cc(F)cc(F)c1)C(=O)N[C@@H]1C(=O)Nc2ccccc2S[C@@H]1c1ccccc1 | 110 to 115 °C |
| COc1ccc(N2CC(=O)c3ccccc3S2)cc1O | 228 to 232 °C |
| CC(=N)NC(=O)Nc1ccc(C#N)c(Cl)c1 | 182 to 183 °C |
| Nc1c(-c2cc(Cl)ccc2O)c2c(C(F)(F)F)cccc2[nH]c1=O | 267 to 268 °C |
| CCc1c(CCNC(=O)CCC(C)CC(=O)NCCc2ccc(OC)c(OC)c2CC)ccc(OC)c1OC (configuration not stated) | 152 to 153 °C |
| CCCCSc1nsnc1O | 72 to 72.5 °C |
| CCCCc1cc(C(=O)O)ccc1C(N)C(=O)O (configuration not stated) | 227 °C |
| O=[N+]([O-])c1cc(-c2nc3ccccc3[nH]2)cc(O)c1O | > 300 °C |
| OC(CNC1CCc2ccccc2C1)COc1ccccc1Cl (configuration not stated) | 98 to 101 °C |
